Source: patent publication US9464093B2, “Substituted imidazo[4',5':4,5]cyclopenta[1,2-e]pyrrolo[1,2-a]pyrazines and oxazolo[4',5':4,5]cyclopenta[1,2-e]pyrrolo[1,2-a]pyrazines for treating brain cancer” (Mayo Foundation for Medical Education and Research, priority 2012, dated 2016)
Entries after “also recorded” stand apart in the source; their conditions may differ.

What was measured:
[1] = test system: Raji lymphoma cells; test: Cell proliferation assay, Raji lymphoma cells (Example 3); type: cell-based; conditions: 100, 500, or 1,000 nM; counted on the third day; vs vehicle
Procedure: Raji cells were purchased from American Tissue Culture (Manassas, Va.). […] Raji cells infected with lentivirus constructs were grown in selection media containing 2.5 μg/ml puromycin. For experiments, unless specified otherwise, all cells were switched back to maintenance media.
Two-tailed student T-test was used to analyze significant difference.

[2] = test system: Raji lymphoma cells; test: Intracerebral dissemination of lymphoma cells (CD20 IHC); type: in vivo, athymic mice
Source text: Paraffin sections (10 μm thick) were fixed and mounted onto glass slides, blocked, and immunostained with antibody to CD20 to identify B lymphoma cells.
Murine brains harvested from the in-vivo experiments to assess the pre-clinical therapeutic activity of AA were studied by IHC. CD20-positive lymphoma cells were counted in the cerebral hemisphere contralateral to the tumor implantation side for dissemination in lateral, anterior, and posterior directions by ScanScope XT slide scanner and image analysis system (Aperio Spectrum, Vista, Calif.). One-way ANOVA was used to determine the statistical significance of the difference between the treated group and untreated control group.

Compound: CN1C(=O)N[C@H]2[C@@H]3NC(=O)c4ccc(Br)n4[C@@H]3C[C@]21O [AA, agelastatin A, reference compound]
- Raji lymphoma cell proliferation [1]: significantly suppressed proliferation; also recorded: decreases Raji lymphoma cell proliferation
- lateral dissemination of lymphoma cells ([2]; T2 (2.5 mg/kg i.p.) and T3 (5 mg/kg i.p.) groups): decreased lateral dissemination of lymphoma cells
- lymphoma cell dissemination in the anterior and posterior direction ([2]; all the treatment groups (1, 2.5, 5 mg/kg i.p.)): Dissemination of lymphoma cells was decreased
- dissemination of lymphoma cells in the brain ([2]; contralateral brain hemisphere, CD20 IHC): significantly decreased dissemination of lymphoma cells in the brain; also recorded: decreases the dissemination of Raji lymphoma cells inside the brain
